Experimental data taken from ChEMBL document CHEMBL4138146, “A Schmidt rearrangement-mediated synthesis of novel tetrahydro-benzo[1,4]diazepin-5-ones as potential anticancer and antiprotozoal agents” (Eur J Med Chem, 2017).

Columns and labels:
Assay type in all cases: functional
T47D = assay: Growth inhibition of human T47D cells assessed as cell growth at 10^-7 M incubated for 48 hrs by sulforhodamine B assay relative to control; details: read-out: Activity
SK-MEL-2 = assay: Growth inhibition of human SK-MEL-2 cells assessed as cell growth at 10^-4 M incubated for 48 hrs by sulforhodamine B assay relative to control; details: SK-MEL-2, 48 h, read-out: Activity
A549 = assay: Growth inhibition of human A549/ATCC cells assessed as cell growth at 10^-6 M incubated for 48 hrs by sulforhodamine B assay relative to control; details: A549, 48 h, read-out: Activity
RPMI-8226 = assay: Growth inhibition of human RPMI8226 cells assessed as cell growth at 10^-7 M incubated for 48 hrs by sulforhodamine B assay relative to control; details: RPMI-8226, 48 h, read-out: Activity
TK-10 = assay: Growth inhibition of human TK10 cells assessed as cell growth at 10^-6 M incubated for 48 hrs by sulforhodamine B assay relative to control; details: TK-10, 48 h, read-out: Activity
SW-620 = assay: Growth inhibition of human SW620 cells assessed as cell growth at 10^-5 M incubated for 48 hrs by sulforhodamine B assay relative to control; details: SW-620, 48 h, read-out: Activity
OVCAR-8 = assay: Growth inhibition of human OVCAR8 cells assessed as cell growth at 10^-8 M incubated for 48 hrs by sulforhodamine B assay relative to control; details: OVCAR-8, 48 h, read-out: Activity
Hs-578T [1] = assay: Growth inhibition of human Hs 578T cells assessed as cell growth at 10^-4 M incubated for 48 hrs by sulforhodamine B assay relative to control; details: read-out: Activity
NCI-H322M = assay: Growth inhibition of human NCI-H322M cells assessed as cell growth at 10^-7 M incubated for 48 hrs by sulforhodamine B assay relative to control; details: read-out: Activity
Hs-578T [2] = assay: Growth inhibition of human Hs 578T cells assessed as cell growth at 10^-8 M incubated for 48 hrs by sulforhodamine B assay relative to control; details: read-out: Activity
HCT-116 = assay: Growth inhibition of human HCT116 cells assessed as cell growth at 10^-4 M incubated for 48 hrs by sulforhodamine B assay relative to control; details: HCT-116, 48 h, read-out: Activity
IGROV-1 = assay: Growth inhibition of human IGROV1 cells assessed as cell growth at 10^-7 M incubated for 48 hrs by sulforhodamine B assay relative to control; details: IGROV-1, 48 h, read-out: Activity
SF-268 = assay: Growth inhibition of human SF268 cells assessed as cell growth at 10^-5 M incubated for 48 hrs by sulforhodamine B assay relative to control; details: SF-268, 48 h, read-out: Activity
CCRF-CEM = assay: Growth inhibition of human CCRF-CEM cells assessed as cell growth at 10^-8 M incubated for 48 hrs by sulforhodamine B assay relative to control; details: read-out: Activity
UO-31 [3] = assay: Growth inhibition of human UO31 cells assessed as cell growth at 10^-5 M incubated for 48 hrs by sulforhodamine B assay relative to control; details: UO-31, 48 h, read-out: Activity
K562 [4] = assay: Growth inhibition of human K562 cells assessed as cell growth at 10^-7 M incubated for 48 hrs by sulforhodamine B assay relative to control; details: K562, 48 h, read-out: Activity
K562 [5] = assay: Growth inhibition of human K562 cells assessed as cell growth at 10^-4 M incubated for 48 hrs by sulforhodamine B assay relative to control; details: K562, 48 h, read-out: Activity
Malme-3M = assay: Growth inhibition of human MALME-3M cells assessed as cell growth at 10^-5 M incubated for 48 hrs by sulforhodamine B assay relative to control; details: read-out: Activity
HCC 2998 [6] = assay: Growth inhibition of human HCC2998 cells assessed as cell growth at 10^-4 M incubated for 48 hrs by sulforhodamine B assay relative to control; details: HCC 2998, 48 h, read-out: Activity
SK-MEL-28 = assay: Growth inhibition of human SK-MEL-28 cells assessed as cell growth at 10^-4 M incubated for 48 hrs by sulforhodamine B assay relative to control; details: SK-MEL-28, 48 h, read-out: Activity
EKVX [7] = assay: Growth inhibition of human EKVX cells assessed as cell growth at 10^-4 M incubated for 48 hrs by sulforhodamine B assay relative to control; details: read-out: Activity
MCF7 [8] = assay: Growth inhibition of human MCF7 cells assessed as cell growth at 10^-4 M incubated for 48 hrs by sulforhodamine B assay relative to control; details: MCF7, 48 h, read-out: Activity
EKVX [9] = assay: Growth inhibition of human EKVX cells assessed as cell growth at 10^-6 M incubated for 48 hrs by sulforhodamine B assay relative to control; details: read-out: Activity
OVCAR-5 = assay: Growth inhibition of human OVCAR5 cells assessed as cell growth at 10^-4 M incubated for 48 hrs by sulforhodamine B assay relative to control; details: OVCAR-5, 48 h, read-out: Activity
HOP-92 = assay: Growth inhibition of human HOP92 cells assessed as cell growth at 10^-7 M incubated for 48 hrs by sulforhodamine B assay relative to control; details: HOP-92, 48 h, read-out: Activity
RXF 393 = assay: Growth inhibition of human RXF393 cells assessed as cell growth at 10^-7 M incubated for 48 hrs by sulforhodamine B assay relative to control; details: RXF 393, 48 h, read-out: Activity
HCC 2998 [10] = assay: Growth inhibition of human HCC2998 cells assessed as cell growth at 10^-8 M incubated for 48 hrs by sulforhodamine B assay relative to control; details: HCC 2998, 48 h, read-out: Activity
SN12C [11] = assay: Growth inhibition of human SN12C cells assessed as cell growth at 10^-6 M incubated for 48 hrs by sulforhodamine B assay relative to control; details: read-out: Activity
MCF7 [12] = assay: Growth inhibition of human MCF7 cells assessed as cell growth at 10^-7 M incubated for 48 hrs by sulforhodamine B assay relative to control; details: MCF7, 48 h, read-out: Activity
UO-31 [13] = assay: Growth inhibition of human UO31 cells assessed as cell growth at 10^-6 M incubated for 48 hrs by sulforhodamine B assay relative to control; details: UO-31, 48 h, read-out: Activity
MOLT-4 = assay: Growth inhibition of human MOLT4 cells assessed as cell growth at 10^-8 M incubated for 48 hrs by sulforhodamine B assay relative to control; details: MOLT-4, 48 h, read-out: Activity
SN12C [14] = assay: Growth inhibition of human SN12C cells assessed as cell growth at 10^-4 M incubated for 48 hrs by sulforhodamine B assay relative to control; details: read-out: Activity
MDA-MB-435 = assay: Growth inhibition of human MDA-MB-435 cells assessed as cell growth at 10^-6 M incubated for 48 hrs by sulforhodamine B assay relative to control; details: MDA-MB-435, 48 h, read-out: Activity
COLO 205 = assay: Growth inhibition of human COLO205 cells assessed as cell growth at 10^-8 M incubated for 48 hrs by sulforhodamine B assay relative to control; details: COLO 205, 48 h, read-out: Activity

Compound `CCCCOc1nc2ccccc2cc1C1CNC(=O)c2ccccc2N1` (centres undefined) has a growth at 0.1 µM (T47D) of 99%, a growth at 100 µM (SK-MEL-2) of -15% and a growth at 1 µM (A549) of 96%. For the same compound, the growth at 0.1 µM (RPMI-8226) was 98%, the growth at 1 µM (TK-10) was 92% and the growth at 10 µM (SW-620) was 18%. For the same compound, the growth at 0.01 µM (OVCAR-8) was 100%, the growth at 100 µM (Hs-578T [1]) was -25% and the growth at 0.1 µM (NCI-H322M) was 95%. It also gave a growth at 0.01 µM (Hs-578T [2]) of 89%, a growth at 100 µM (HCT-116) of -67% and a growth at 0.1 µM (IGROV-1) of 92%. The growth at 10 µM (SF-268) was 31%, the growth at 0.01 µM (CCRF-CEM) was 98% and the growth at 10 µM (UO-31 [3]) was 31%. It also gave a growth at 0.1 µM (K562 [4]) of 95%, a growth at 100 µM (K562 [5]) of -25% and a growth at 10 µM (Malme-3M) of 41%. It also gave a growth at 100 µM (HCC 2998 [6]) of -20%, a growth at 100 µM (SK-MEL-28) of -57% and a growth at 100 µM (EKVX [7]) of -3%. For the same compound, the growth at 100 µM (MCF7 [8]) was -40%, the growth at 1 µM (EKVX [9]) was 89% and the growth at 100 µM (OVCAR-5) was -24%. The growth at 0.1 µM (HOP-92) was 80%, the growth at 0.1 µM (RXF 393) was 86% and the growth at 0.01 µM (HCC 2998 [10]) was 99%. It also gave a growth at 1 µM (SN12C [11]) of 84%, a growth at 0.1 µM (MCF7 [12]) of 91% and a growth at 1 µM (UO-31 [13]) of 61%. The growth at 0.01 µM (MOLT-4) was 70%, the growth at 100 µM (SN12C [14]) was -53% and the growth at 1 µM (MDA-MB-435) was 8%. For the same compound, the growth at 0.01 µM (COLO 205) was 96%.
